{
  "source": "patent US6316410A",
  "about": "“Parathyroid hormone analogues for the treatment of osteoporosis” (National Research Council of Canada, priority 1999, dated 2001)",
  "molecules": {"B1": {"name": "hPTH(1-29)NH2 (peptide)", "peptide": "SVSEIQLMHNLGKHLNSMERVEWLRKKLQ-NH2"}, "B2": {"name": "hPTH(1-28)NH2 (peptide)", "peptide": "SVSEIQLMHNLGKHLNSMERVEWLRKKL-NH2"}, "B3": {"name": "[Leu^27]cyclo(Glu^22-Lys^26)-hPTH-(1-29)-NH2 (peptide)", "peptide": "SVSEIQLMHNLGKHLNSMERVEWLRKLLQ-NH2", "modifications": "lactam 22-26; N-terminus assumed", "SMILES": "CC[C@H](C)[C@H](NC(=O)[C@H](CCC(=O)O)NC(=O)[C@H](CO)NC(=O)[C@@H](NC(=O)[C@@H](N)CO)C(C)C)C(=O)N[C@@H](CCC(N)=O)C(=O)N[C@@H](CC(C)C)C(=O)N[C@@H](CCSC)C(=O)N[C@@H](Cc1c[nH]cn1)C(=O)N[C@@H](CC(N)=O)C(=O)N[C@@H](CC(C)C)C(=O)NCC(=O)N[C@@H](CCCCN)C(=O)N[C@@H](Cc1c[nH]cn1)C(=O)N[C@@H](CC(C)C)C(=O)N[C@@H](CC(N)=O)C(=O)N[C@@H](CO)C(=O)N[C@@H](CCSC)C(=O)N[C@@H](CCC(=O)O)C(=O)N[C@@H](CCCNC(=N)N)C(=O)N[C@H](C(=O)N[C@H]1CCC(=O)NCCCC[C@@H](C(=O)N[C@@H](CC(C)C)C(=O)N[C@@H](CC(C)C)C(=O)N[C@@H](CCC(N)=O)C(N)=O)NC(=O)[C@H](CCCNC(=N)N)NC(=O)[C@H](CC(C)C)NC(=O)[C@H](Cc2c[nH]c3ccccc23)NC1=O)C(C)C"}, "B4": {"name": "[Leu^27]cyclo(Glu^22-Lys^26)-hPTH-(1-28)-NH2 (peptide)", "peptide": "SVSEIQLMHNLGKHLNSMERVEWLRKLL-NH2", "modifications": "lactam 22-26; N-terminus assumed", "SMILES": "CC[C@H](C)[C@H](NC(=O)[C@H](CCC(=O)O)NC(=O)[C@H](CO)NC(=O)[C@@H](NC(=O)[C@@H](N)CO)C(C)C)C(=O)N[C@@H](CCC(N)=O)C(=O)N[C@@H](CC(C)C)C(=O)N[C@@H](CCSC)C(=O)N[C@@H](Cc1c[nH]cn1)C(=O)N[C@@H](CC(N)=O)C(=O)N[C@@H](CC(C)C)C(=O)NCC(=O)N[C@@H](CCCCN)C(=O)N[C@@H](Cc1c[nH]cn1)C(=O)N[C@@H](CC(C)C)C(=O)N[C@@H](CC(N)=O)C(=O)N[C@@H](CO)C(=O)N[C@@H](CCSC)C(=O)N[C@@H](CCC(=O)O)C(=O)N[C@@H](CCCNC(=N)N)C(=O)N[C@H](C(=O)N[C@H]1CCC(=O)NCCCC[C@@H](C(=O)N[C@@H](CC(C)C)C(=O)N[C@@H](CC(C)C)C(N)=O)NC(=O)[C@H](CCCNC(=N)N)NC(=O)[C@H](CC(C)C)NC(=O)[C@H](Cc2c[nH]c3ccccc23)NC1=O)C(C)C"}, "B5": {"name": "[Glu^17, Leu^27]cyclo(Lys^13-Glu^17, Glu^22-Lys^26)-hPTH-(1-31)-NH2 (peptide)", "peptide": "SVSEIQLMHNLGKHLNEMERVEWLRKLLQDV-NH2", "modifications": "lactam 13-17, 22-26; N-terminus assumed", "SMILES": "CC[C@H](C)[C@H](NC(=O)[C@H](CCC(=O)O)NC(=O)[C@H](CO)NC(=O)[C@@H](NC(=O)[C@@H](N)CO)C(C)C)C(=O)N[C@@H](CCC(N)=O)C(=O)N[C@@H](CC(C)C)C(=O)N[C@@H](CCSC)C(=O)N[C@@H](Cc1c[nH]cn1)C(=O)N[C@@H](CC(N)=O)C(=O)N[C@@H](CC(C)C)C(=O)NCC(=O)N[C@H]1CCCCNC(=O)CC[C@@H](C(=O)N[C@@H](CCSC)C(=O)N[C@@H](CCC(=O)O)C(=O)N[C@@H](CCCNC(=N)N)C(=O)N[C@H](C(=O)N[C@H]2CCC(=O)NCCCC[C@@H](C(=O)N[C@@H](CC(C)C)C(=O)N[C@@H](CC(C)C)C(=O)N[C@@H](CCC(N)=O)C(=O)N[C@@H](CC(=O)O)C(=O)N[C@H](C(N)=O)C(C)C)NC(=O)[C@H](CCCNC(=N)N)NC(=O)[C@H](CC(C)C)NC(=O)[C@H](Cc3c[nH]c4ccccc34)NC2=O)C(C)C)NC(=O)[C@H](CC(N)=O)NC(=O)[C@H](CC(C)C)NC(=O)[C@H](Cc2c[nH]cn2)NC1=O"}},
  "key": {"ovariectomized rat model": {"system": "ovariectomized rat model", "conditions": "ovariectomized rats, literature; cited from earlier work"}, "[1]": {"system": "adenylyl cyclase of ROS 17/2 cells", "assay_type": "cell-based, rat", "text": "Adenylyl cyclase activities of 4- to 5-day cultures of ROS 17/2 cells in 24-well plates were estimated from the rate of formation of [^3 H]-cAMF from the cellular ATP pool, which had been labelled with [^3 H]-adenine before exposure to hPTH or its analogues in accordance with Jouishomme, H. Whitfield, J. F.; Gagnon, L.; Maclean, S.; Isaacs, R.; Chakravarthy, B.; Durkin, J.; Neugebauer, W.; Willick, G.; Rixon, R. H. Further Definition of the Protein Kinase C Activation Domain of the Parathyroid Hormone. J. Bone Miner. Res. 1994, 9, 943-949."}, "[2]": {"system": "ovariectomized (OVX) rats", "assay": "Growth of trabeculae in the distal femurs of ovariectomized (OVX) rats, injections week 9 to 15 after OVX", "assay_type": "in vivo", "conditions": "5 nmoles/100 g of body weight s.c. daily, FIG. 8, in words", "text": "Rats were OVXed (OVX) or sham-OVXed (sham) and given daily subcutaneous injections of vehicle between the end of the 9th week and the end of the 15th week after OVX. Injection quantities were 5 nmoles/100 g of body weight. OVXed rats received daily subcutaneous injections of: vehicle (OVX), hPTH(1-31)NH2, 5 nmol (linear), [Leu^27 ]cyclo(Glu^22 -Lys^26)hPTH(1-28)NH2, 5 nmol (cyclic), or [Glu^17,Leu^27]cyclo(Lys^13 -Glu^17,Glu^22 Lys^26)hPTH(1-31)NH2, 5nmol(double cyclic). The femurs were demineralized and stained with Sanderson's rapid bone stain. […] This improvement is not correlated with their relative AC-stimulating activities, but likely results from greater stability to proteolytic attack and greater ability to be transported from the site of injection."}, "[3]": {"conditions": "ROS 17/2 cells, concentration required to obtain half-maximal activity"}},
  "note": "“Also recorded” adds a separate entry of the source. Read-outs that look alike come from different tables or passages of the source. Positions of bridges follow the written chain, without caps; N, C: chain ends. No end group written: not given here.",
  "data": [
    {"molecule": "hPTH(1-30)NH2 (SVSEIQLMHNLGKHLNSMERVEWLRKKLQD-NH2; UniProt P01270 32-61, looked up, fragment) [linear human parathyroid hormone fragment 1-30 amide]", "values": [
      {"measurement": "anabolic activity / restoration of bone loss", "setting": "ovariectomized rat model", "value": "only with much higher doses than used with the (1-31) analogue"}
    ]},
    {"molecule": "SVSEIQLMHNLGKHLNSMERVEWLRKKLQ-NH2 [hPTH(1-29)NH2, reference compound]", "values": [
      {"measurement": "AC-Stimulation (ED50%, nM)", "setting": "[1]", "value": 24, "unit": "nM"}
    ]},
    {"molecule": "SVSEIQLMHNLGKHLNSMERVEWLRKKL-NH2 [hPTH(1-28)NH2, reference compound]", "values": [
      {"measurement": "AC-Stimulation (ED50%, nM)", "setting": "[1]", "value": 24, "unit": "nM"}
    ]},
    {"molecule": "[Leu^27 ]cyclo(Glu^22 -Lys^26)-hPTH-(1-29)-NH2 (SVSEIQLMHNLGKHLNSMERVEWLRKLLQ-NH2; lactam 22-26; N-terminus assumed; SMILES CC[C@H](C)[C@H](NC(=O)[C@H](CCC(=O)O)NC(=O)[C@H](CO)NC(=O)[C@@H](NC(=O)[C@@H](N)CO)C(C)C)C(=O)N[C@@H](CCC(N)=O)C(=O)N[C@@H](CC(C)C)C(=O)N[C@@H](CCSC)C(=O)N[C@@H](Cc1c[nH]cn1)C(=O)N[C@@H](CC(N)=O)C(=O)N[C@@H](CC(C)C)C(=O)NCC(=O)N[C@@H](CCCCN)C(=O)N[C@@H](Cc1c[nH]cn1)C(=O)N[C@@H](CC(C)C)C(=O)N[C@@H](CC(N)=O)C(=O)N[C@@H](CO)C(=O)N[C@@H](CCSC)C(=O)N[C@@H](CCC(=O)O)C(=O)N[C@@H](CCCNC(=N)N)C(=O)N[C@H](C(=O)N[C@H]1CCC(=O)NCCCC[C@@H](C(=O)N[C@@H](CC(C)C)C(=O)N[C@@H](CC(C)C)C(=O)N[C@@H](CCC(N)=O)C(N)=O)NC(=O)[C@H](CCCNC(=N)N)NC(=O)[C@H](CC(C)C)NC(=O)[C@H](Cc2c[nH]c3ccccc23)NC1=O)C(C)C) [[Leu^27]c(Glu^22 -Lys^26)hPTH(1-29)NH2, 22-26 lactam cyclic analogue of human parathyroid hormone 1-29 amide with Leu27]", "values": [
      {"measurement": "AC-Stimulation (ED50%, nM)", "setting": "[1]; [3]", "value": 8.4, "unit": "nM"}
    ]},
    {"molecule": "[Glu^17, Leu^27 ]cyclo(Lys^13 -Glu^17, Glu^22 -Lys^26)-hPTH-(1-31)-NH2 (SVSEIQLMHNLGKHLNEMERVEWLRKLLQDV-NH2; lactam 13-17, 22-26; N-terminus assumed; SMILES CC[C@H](C)[C@H](NC(=O)[C@H](CCC(=O)O)NC(=O)[C@H](CO)NC(=O)[C@@H](NC(=O)[C@@H](N)CO)C(C)C)C(=O)N[C@@H](CCC(N)=O)C(=O)N[C@@H](CC(C)C)C(=O)N[C@@H](CCSC)C(=O)N[C@@H](Cc1c[nH]cn1)C(=O)N[C@@H](CC(N)=O)C(=O)N[C@@H](CC(C)C)C(=O)NCC(=O)N[C@H]1CCCCNC(=O)CC[C@@H](C(=O)N[C@@H](CCSC)C(=O)N[C@@H](CCC(=O)O)C(=O)N[C@@H](CCCNC(=N)N)C(=O)N[C@H](C(=O)N[C@H]2CCC(=O)NCCCC[C@@H](C(=O)N[C@@H](CC(C)C)C(=O)N[C@@H](CC(C)C)C(=O)N[C@@H](CCC(N)=O)C(=O)N[C@@H](CC(=O)O)C(=O)N[C@H](C(N)=O)C(C)C)NC(=O)[C@H](CCCNC(=N)N)NC(=O)[C@H](CC(C)C)NC(=O)[C@H](Cc3c[nH]c4ccccc34)NC2=O)C(C)C)NC(=O)[C@H](CC(N)=O)NC(=O)[C@H](CC(C)C)NC(=O)[C@H](Cc2c[nH]cn2)NC1=O) [double cyclic (13-17 and 22-26 lactams) hPTH 1-31 amide analogue]", "values": [
      {"measurement": "AC-Stimulation (ED50%, nM)", "setting": "[1]; [3]", "value": 13.2, "unit": "nM"},
      {"measurement": "increasing the thickness of the remaining trabeculae", "setting": "[2]", "value": "better than its monocyclic counterpart; also recorded: significantly better than the linear molecule"}
    ]},
    {"molecule": "[Leu^27 ]cyclo(Glu^22 -Lys^26)-hPTH-(1-28)-NH2 (SVSEIQLMHNLGKHLNSMERVEWLRKLL-NH2; lactam 22-26; N-terminus assumed; SMILES CC[C@H](C)[C@H](NC(=O)[C@H](CCC(=O)O)NC(=O)[C@H](CO)NC(=O)[C@@H](NC(=O)[C@@H](N)CO)C(C)C)C(=O)N[C@@H](CCC(N)=O)C(=O)N[C@@H](CC(C)C)C(=O)N[C@@H](CCSC)C(=O)N[C@@H](Cc1c[nH]cn1)C(=O)N[C@@H](CC(N)=O)C(=O)N[C@@H](CC(C)C)C(=O)NCC(=O)N[C@@H](CCCCN)C(=O)N[C@@H](Cc1c[nH]cn1)C(=O)N[C@@H](CC(C)C)C(=O)N[C@@H](CC(N)=O)C(=O)N[C@@H](CO)C(=O)N[C@@H](CCSC)C(=O)N[C@@H](CCC(=O)O)C(=O)N[C@@H](CCCNC(=N)N)C(=O)N[C@H](C(=O)N[C@H]1CCC(=O)NCCCC[C@@H](C(=O)N[C@@H](CC(C)C)C(=O)N[C@@H](CC(C)C)C(N)=O)NC(=O)[C@H](CCCNC(=N)N)NC(=O)[C@H](CC(C)C)NC(=O)[C@H](Cc2c[nH]c3ccccc23)NC1=O)C(C)C) [[Leu^27]c(Glu^22 -Lys^26)hPTH(1-28)NH2, 22-26 lactam cyclic analogue of human parathyroid hormone 1-28 amide with Leu27]", "values": [
      {"measurement": "AC-Stimulation (ED50%, nM)", "setting": "[1]; [3]", "value": 9.6, "unit": "nM"}
    ]},
    {"molecule": "Ser Val Ser Glu Ile Gln Leu Met His Asn Leu Gly Lys His Leu Asn Ser Met Glu Arg Val Glu Trp Leu Arg Lys Lys Leu Gin Asp Val-NH2 (SVSEIQLMHNLGKHLNSMERVEWLRKKLQDV-NH2) [hPTH-(1-31)-NH2, linear human parathyroid hormone fragment 1-31 amide]", "values": [
      {"measurement": "anabolic activity / restoration of bone loss", "setting": "ovariectomized rat model", "value": "fully active in the restoration of bone loss"}
    ]},
    {"molecule": "B1", "values": [
      {"measurement": "AC-Stimulation (ED50%, nM)", "setting": "PTH receptor", "value": 24, "unit": "nM"}
    ]},
    {"molecule": "B2", "values": [
      {"measurement": "AC-Stimulation (ED50%, nM)", "setting": "PTH receptor", "value": 24, "unit": "nM"}
    ]},
    {"molecule": "B3", "values": [
      {"measurement": "AC-Stimulation (ED50%, nM)", "setting": "PTH receptor", "value": 8.4, "unit": "nM"}
    ]},
    {"molecule": "B4", "values": [
      {"measurement": "AC-Stimulation (ED50%, nM)", "setting": "PTH receptor", "value": 9.6, "unit": "nM"}
    ]},
    {"molecule": "B5", "values": [
      {"measurement": "AC-Stimulation (ED50%, nM)", "setting": "PTH receptor", "value": 13.2, "unit": "nM"}
    ]}
  ]
}
